Experimental data as given in paper PMC2818879 (Journal of medicinal chemistry, 2010).

Legend:
[1] = system: reserpine-induced hypolocomotion in rats; experiment: Reversal of reserpine-induced hypolocomotion in rats; details: 10 µMol/kg s.c.; for Effect compared to reserpine control (ANOVA, Dunnett's analysis): horizontal activity, six rats
6-OHDA lesioned rats = experiment: Rotational experiment with 6-OH-DA unilaterally lesioned rats; format: in vivo, rat
cloned human D2 receptor = cloned human D2 receptor (Homo sapiens, UniProt P14416); experiment: Stimulation of [35S]GTPγS binding, D2 receptor expressed in CHO cells; details: read-out: CHO-D2 %Emax
Sequence of cloned human D2 receptor (P14416 whole entry): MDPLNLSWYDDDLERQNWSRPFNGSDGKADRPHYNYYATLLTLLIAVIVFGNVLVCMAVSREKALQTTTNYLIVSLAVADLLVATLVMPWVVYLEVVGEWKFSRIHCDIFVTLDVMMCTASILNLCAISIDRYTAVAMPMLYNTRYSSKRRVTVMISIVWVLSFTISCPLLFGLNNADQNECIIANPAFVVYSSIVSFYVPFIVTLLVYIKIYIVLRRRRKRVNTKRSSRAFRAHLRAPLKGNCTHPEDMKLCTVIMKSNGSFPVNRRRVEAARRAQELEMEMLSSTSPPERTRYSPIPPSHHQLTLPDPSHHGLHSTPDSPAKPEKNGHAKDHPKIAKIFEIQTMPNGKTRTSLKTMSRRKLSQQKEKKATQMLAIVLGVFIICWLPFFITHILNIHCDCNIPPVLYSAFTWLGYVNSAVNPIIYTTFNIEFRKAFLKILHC

cloned rat D3 receptor = cloned rat D3 receptor (Rattus norvegicus, UniProt P19020); experiment: Inhibition of [3H]spiperone binding to D3 receptors expressed in HEK-293 cells; details: ratio of Ki values

Row | SMILES | Effect compared to reserpine control (ANOVA, Dunnett's analysis) [1] | Total rotations (contralateral) (6-OHDA lesioned rats; 5 µMol/kg s.c.) | Time of peak effect (rotations) (6-OHDA lesioned rats; 10 µMol/kg s.c.) | Total rotations (contralateral) (6-OHDA lesioned rats; 10 µMol/kg s.c.) | Emax (cloned human D2 receptor) [%] | further results
1 | CCCN(CCN1CCN(c2ccnc3ccccc23)CC1)[C@H]1CCc2nc(N)sc2C1 [(−)-24a, (S)-N^6-Propyl-N^6-(2-(4-(quinolin-4-yl)piperazin-1-yl)ethyl)-4,5,6,7-tetrahydrobenzo[d]thiazole-2,6-diamine] | not statistically significant |  |  |  |  | Reversal of reserpine-induced hypolocomotion ([1]; reserpine 5 mg/kg s.c. 18 h before, locomotion monitored 6 h): much less active compared to 24b and 24c
2 | CCCN(CCN1CCN(c2cccc3ncccc23)CC1)[C@H]1CCc2nc(N)sc2C1 [(−)-24b, (S)-N^6-Propyl-N^6-(2-(4-(quinolin-5-yl)piperazin-1-yl)ethyl)-4,5,6,7-tetrahydrobenzo[d]thiazole-2,6-diamine] | significantly different | 2295 | around 7.5 h | 2648 |  | Time of peak effect (rotations) (6-OHDA lesioned rats; 5 µMol/kg s.c.): around 5 h
3 | CCCN(CCN1CCN(c2nccc3ccccc23)CC1)[C@H]1CCc2nc(N)sc2C1 [(−)-24c, (S)-N^6-(2-(4-(Isoquinolin-1-yl)piperazin-1-yl)ethyl)-N^6-propyl-4,5,6,7-tetrahydrobenzo[d]-thiazole-2,6-diamine] | significantly different | 2805 | about 7 h | 3688 | 88.4 ± 3.9 | 
4 | CCCN(CCN1CCN(c2ccc(-c3ccccc3)cc2)CC1)[C@H]1CCc2nc(N)sc2C1 [Compound 2] |  |  |  |  | 119 ± 6 | 
6 | CCCN(CCC)CCc1cccc2c1CC(=O)N2 [Ropinirole, reference compound] | significantly different |  |  |  | 83.9 ± 0.3 | 
